According to patent US9408853B2, “Iridium/rhodium anti-cancer compounds” (University of Warwick, priority 2010, dated 2016):

System: human ovarian A2780 cancer cells
Test: Cancer cell cytotoxicity, SRB assay
Format: cell-based
Conditions: not given
Description: Cancer Cell Cytotoxicity. After plating, human ovarian A2780 cancer cells were treated with Ir^III complexes on day 3 at concentrations ranging from 0.5 μM to 100 μM. Solutions of the Ir^III complexes were made up in 0.125% DMSO to assist dissolution. Stock solutions of the IrIII complexes were firstly prepared in DMSO to assist dissolution, and then diluted into 0.9% saline and medium. After plating 5000 A2780 cells per well on day 1, IrIII complexes were added to the cancer cells on day 3 at concentrations ranging from 0.05 μM to 100 μM. Cells were exposed to the complexes for 24 h, washed, supplied with fresh medium, allowed to grow for three doubling times (72 h), and then the protein content measured (proportional to cell survival) using the sulforhodamine B (SRB) assay.^15 […]. The standard errors are based on two independent experiments of three replicates each.

| Compound | cytotoxic activity towards A2780 (in words) |
| --- | --- |
| Cc1c(C)c(C)[c-](C)c1C.[Cl-].[Ir+3].[O-]c1cccnc1-c1ncccc1O [ZL44, [(η^5-C5Me5)Ir(bipy(OH)O)Cl]] | moderate or high activity |
| Cc1c(C)c(C)[c-](C)c1C.[Cl-].[Ir+3].[c-]1ccccc1C=Nc1ccccc1 [ZL51, [(η^5-C5Me5)Ir{C6H4-2-C(H)═NPh-κC,N}Cl]] | moderate or high activity |

Same assay, conditions: 24 h exposure, 72 h recovery, SRB; read-out: A2780 IC50

| Compound | IC50 [µM] |
| --- | --- |
| Cc1c(C)c(C)[c-](C)c1C.[Cl-].[Ir+3].[O-]c1cccnc1-c1ncccc1O [ZL44, [(η^5-C5Me5)Ir(bipy(OH)O)Cl]] | 17.2 |
| Cc1c(C)c(-c2ccc(-c3ccccc3)cc2)[c-](C)c1C.F[P-](F)(F)(F)(F)F.[Ir+3].[c-]1ccccc1-c1ccccn1.c1ccncc1 (centres unmarked) [ZL105, [(η^5-C5Me4C6H4C6H5)Ir(2-phpy)(py)]PF6] | 0.12 ± 0.02 |
| Cc1c(C)c(C)[c-](C)c1C.Cc1ccnc(-c2cc(C)ccn2)c1.F[P-](F)(F)(F)(F)F.[Cl-].[Ir+3] [ZL55, [(η^5-C5Me5)Ir(bipy(Me)2)Cl]PF6] | > 100 |
| Cc1c(C)c(C)[c-](-c2ccc(-c3ccccc3)cc2)c1C.Cc1ccnc(-c2cc(C)ccn2)c1.F[P-](F)(F)(F)(F)F.[Cl-].[Ir+3] [ZL59, [(η^5-C5Me4C6H4C6H5)Ir(bipy(Me)2)Cl]PF6] | 0.51 |
| Cc1c(C)c(-c2ccccc2)[c-](C)c1C.NCCN.[Cl-].[Ir+3].c1ccc([B-](c2ccccc2)(c2ccccc2)c2ccccc2)cc1 [ZL31, [(η^5-C5Me4C6H5)IrCl(H2NCH2CH2NH2—N,N)]BPh4] | 17 |
| Cc1c(C)c(C)[c-](C)c1C.[Cl-].[Ir+3].[c-]1ccccc1C=Nc1ccccc1 [ZL51, [(η^5-C5Me5)Ir{C6H4-2-C(H)═NPh-κC,N}Cl]] | 5 |
| Cc1c(C)c(C)[c-](-c2ccccc2)c1C.F[P-](F)(F)(F)(F)F.Oc1cccnc1-c1ncccc1O.[Cl-].[Ir+3] [ZL45, [(η^5-C5Me4C6H5)Ir(bipy(OH)2)Cl]PF6] | 7.2 |
| CC(=O)C=C(C)[O-].Cc1c(C)c(C)[c-](C)c1C.[Cl-].[Ir+3] [ZL02, [(η^5-C5Me5)Ir(acac)Cl]] | > 100 |
| Cc1c(C)c(C)[c-](-c2ccccc2)c1C.Cc1ccnc(-c2cc(C)ccn2)c1.F[P-](F)(F)(F)(F)F.[Cl-].[Ir+3] [ZL57, [(η^5-C5Me4C6H5)Ir(bipy(Me)2)Cl]PF6] | 9.2 |
| Cc1c(C)c(-c2ccc(-c3ccccc3)cc2)[c-](C)c1C.Fc1c[c-]c(-c2ccccn2)c(F)c1.[Cl-].[Ir+3] (centres unmarked) [ZL103, [(η^5-C5Me4C6H4C6H5)Ir(2-dfphpy)Cl]] | 0.67 ± 0.11 |
| Cc1c(C)c(C)[c-](-c2ccc(-c3ccccc3)cc2)c1C.[Cl-].[Ir+3].[O-]c1cccnc1-c1ncccc1O [ZL46, {(η^5-C5Me4C6H4C6H5)Ir[bipy(OH)(O)]Cl}] | 2.8 |

Same assay, conditions: screening test; read-out: A2780 IC50, data from screening test

| Compound | IC50 [µM] |
| --- | --- |
| Cc1c(C)c(C)[c-](-c2ccc(-c3ccccc3)cc2)c1C.[Cl-].[Cl][Ir+2].c1ccc2nc3c4cccnc4c4ncccc4c3nc2c1 [ZL95, [(η^5-C5Me4C6H4C6H5Pr(dppz)Cl]Cl] | < 5 |
| Cc1c(C)c(C)[c-](-c2ccc(-c3ccccc3)cc2)c1C.[Cl-].[Cl][Ir+2].c1cnc2c(c1)c1nccnc1c1cccnc12 [ZL94, [(η^5-C6Me4C6H4C6H5)Ir(dpq)Cl]Cl] | < 5 |
| CN(C)c1ccc(N=Nc2ccccn2)cc1.Cc1c(C)c(-c2ccccc2)[c-](C)c1C.F[P-](F)(F)(F)(F)F.[Cl-].[Ir+3] [ZL109, [(η^5-C5Me4C6H5)Ir(azpy-NMe2)Cl]PF6] | < 10 |
| Cc1c(C)c(C)[c-](-c2ccccc2)c1C.[Cl-].[Cl][Ir+2].c1ccc2nc3c4cccnc4c4ncccc4c3nc2c1 [ZL93, [(η^5-C5Me4C6H5)Ir(dppz)Cl]Cl] | < 5 |
| Cc1c(C)c(C)[c-](-c2ccccc2)c1C.F[P-](F)(F)(F)(F)F.[Cl][Ir+2]1[N]2C=CC=c3c2c2c(c4nccnc34)=CC=C[N]21 [ZL89, [(η^5-C5Me4C6H5)Ir(dpq)Cl]PF6] | < 5 |
| CCC[c-]1c(C)c(C)c(C)c1C.[Cl-].[Ir+3].[c-]1ccccc1-c1ccccn1 [ZL100, [(η^5-C5Me4C3H7)Ir(2-phpy)Cl]] | < 10 |
| CN(C)c1ccc(N=Nc2ccccn2)cc1.Cc1c(C)c(C)[c-](C)c1C.F[P-](F)(F)(F)(F)F.[Cl-].[Ir+3] [ZL64, [(η^5-C5Me5)Ir(azpy-NMe2)Cl]PF6] | < 30 |

System: not listed separately
Test: Determination of pKa* of coordinated D2O by 1H NMR pH* titration
Format: physicochemical
Conditions: calculated from pKa* according to Krezel and Bal (pKa=0.929pKa*+0.42)
Description: pH* Measurement. pH* values (pH meter reading without correction for effects of D on glass electrode) of NMR samples in D2O were measured at ca. 298 K directly in the NMR tube, before and after recording NMR spectra, using a Corning 240 pH meter equipped with a micro combination electrode calibrated with Aldrich buffer solutions of pH 4, 7 and 10. For determination of the pKa* value of aquated complexes, complexes were dissolved in D2O and 0.98 mol equiv of AgNO3 was added. The solution was stirred for 24 h at 298 K, and AgCl was removed by filtration.
Determination of pKa* Values. […] The chemical shifts of the chelating ligands or/and methyl group of Cp* protons were plotted against pH*. The pH* titration curves were fitted to the Henderson-Hasselbalch equation, with the assumption that the observed chemical shifts are weighted averages according to the populations of the protonated and deprotonated species.
The changes in the ^1H NMR chemical shifts for the protons of the coordinated chelating ligands in compounds ZL25A, ZL54A, ZL38A, chelating ligands and methyl group in Cp* or Cp^xph in compounds ZL04A, ZL07A, ZL37A, ZL03A, and methyl group in Cp* in compound ZL01A were followed with change in pH* over a range of 2-11. The mean pKa* value was taken for each complex.
When the pH* values of the solutions were increased from about 2 to 11, the NMR peaks assigned to ZL01A, ZL03A, ZL04A, ZL07A, ZL25A, ZL37A, ZL38A and ZL54A gradually shifted to high field in the spectrum.
When the pH* values of the solutions were increased from about 2 to 10, the NMR peaks assigned to aqua complexes ZL47A, ZL49A, ZL69A and ZL74A gradually shifted to high field in the spectrum. The resulting pH titration curves were fitted to the modified Henderson-Hasselbalch equation, from which the pKa* values of the coordinated water were determined.

| Compound | pKa (deprotonation of coordinated D2O) |
| --- | --- |
| Cc1c(C)c(C)[c-](C)c1C.NCCN.[2H]O[2H].[Ir+3] [ZL01A, [(η^5-C5Me5)IrCl(en)OD2]^2+] | 7.54 |
| [(η^5-C5Me5)Ir(pico)OD2]^+ [ZL03A] | 7.99 |
| [(η^5-C5Me4C6H4C6H5)Ir(2-phpy)(D2O)]^+ [ZL49A] | 8.31 |
| [(η^5-C5Me4C6H5)Ir(pico)OD2]^+ [ZL38A] | 7.62 |
| [(η^5-C5Me5)Ir(2-phpy)(D2O)]^+ [ZL47A] | 8.75 |
| [(η^5-C5Me5)Ir(tpy)(D2O)]^+ [ZL69A] | 8.87 |
| [(η^5-C5Me5)Ir(2-dfphpy)(D2O)]^+ [ZL74A] | 8.32 |
| [(η^5-C5Me4C6H4C6H5)Ir(phen)OD2]^2+ [ZL54A] | 7.38 |
| [(η^5-C5Me4C6H5)Ir(bipy)OD2]^2+ [ZL37A] | 6.28 |
| [(η^5-C5Me4C6H4C6H5)Ir(bipy)OD2]^2+ [ZL25A] | 6.63 |
| Cc1c(C)c(C)[c-](C)c1C.[2H]O[2H].[Ir+3].c1ccc(-c2ccccn2)nc1 [ZL04A, [(η^5-C5Me5)Ir(bipy)OD2]^2+] | 6.86 |
| Cc1c(C)c(C)[c-](C)c1C.[2H]O[2H].[Ir+3].c1cnc2c(c1)ccc1cccnc12 [ZL07A, [(η^5-C5Me5)Ir(phen)OD2]^2+] | 7.74 |

Same assay, conditions: in D2O

| Compound | pKa* (deprotonation of coordinated D2O) |
| --- | --- |
| Cc1c(C)c(C)[c-](C)c1C.NCCN.[2H]O[2H].[Ir+3] [ZL01A, [(η^5-C5Me5)IrCl(en)OD2]^2+] | 7.66 |
| [(η^5-C5Me5)Ir(pico)OD2]^+ [ZL03A] | 8.15 |
| [(η^5-C5Me4C6H4C6H5)Ir(2-phpy)(D2O)]^+ [ZL49A] | 8.50 |
| [(η^5-C5Me4C6H5)Ir(pico)OD2]^+ [ZL38A] | 7.75 |
| [(η^5-C5Me5)Ir(2-phpy)(D2O)]^+ [ZL47A] | 8.97 |
| [(η^5-C5Me5)Ir(tpy)(D2O)]^+ [ZL69A] | 9.10 |
| [(η^5-C5Me5)Ir(2-dfphpy)(D2O)]^+ [ZL74A] | 8.51 |
| [(η^5-C5Me4C6H4C6H5)Ir(phen)OD2]^2+ [ZL54A] | 7.50 |
| [(η^5-C5Me4C6H5)Ir(bipy)OD2]^2+ [ZL37A] | 6.31 |
| [(η^5-C5Me4C6H4C6H5)Ir(bipy)OD2]^2+ [ZL25A] | 6.68 |
| Cc1c(C)c(C)[c-](C)c1C.[2H]O[2H].[Ir+3].c1ccc(-c2ccccn2)nc1 [ZL04A, [(η^5-C5Me5)Ir(bipy)OD2]^2+] | 6.94 |
| Cc1c(C)c(C)[c-](C)c1C.[2H]O[2H].[Ir+3].c1cnc2c(c1)ccc1cccnc12 [ZL07A, [(η^5-C5Me5)Ir(phen)OD2]^2+] | 7.88 |
